Reference: ChEMBL document CHEMBL1201862, “PubChem BioAssay data set” (2004)
Active and inactive are the calls of the source.

What was measured:
Nonstructural protein 1 = Nonstructural protein 1 (Influenza A virus, UniProt Q194T2); type: functional, Influenza A virus (A/California/07/2009(H1N1))
[1] = molecular target: Induced myeloid leukemia cell differentiation protein Mcl-1 (Homo sapiens, UniProt Q07820); type: functional
Protein RecA = molecular target: T1, Protein RecA (Mycobacterium tuberculosis, UniProt P9WHJ3); experiment: Fluorescence Cell-Free Homogeneous Dose Retest to Identify Inhibitors of RecA-Intein Splicing Activity. [Related pubchem assays (depositor defined):AID2097, AID2223, AID489010, AID492950]; type: functional
T1 sequence (P9WHJ3 whole entry): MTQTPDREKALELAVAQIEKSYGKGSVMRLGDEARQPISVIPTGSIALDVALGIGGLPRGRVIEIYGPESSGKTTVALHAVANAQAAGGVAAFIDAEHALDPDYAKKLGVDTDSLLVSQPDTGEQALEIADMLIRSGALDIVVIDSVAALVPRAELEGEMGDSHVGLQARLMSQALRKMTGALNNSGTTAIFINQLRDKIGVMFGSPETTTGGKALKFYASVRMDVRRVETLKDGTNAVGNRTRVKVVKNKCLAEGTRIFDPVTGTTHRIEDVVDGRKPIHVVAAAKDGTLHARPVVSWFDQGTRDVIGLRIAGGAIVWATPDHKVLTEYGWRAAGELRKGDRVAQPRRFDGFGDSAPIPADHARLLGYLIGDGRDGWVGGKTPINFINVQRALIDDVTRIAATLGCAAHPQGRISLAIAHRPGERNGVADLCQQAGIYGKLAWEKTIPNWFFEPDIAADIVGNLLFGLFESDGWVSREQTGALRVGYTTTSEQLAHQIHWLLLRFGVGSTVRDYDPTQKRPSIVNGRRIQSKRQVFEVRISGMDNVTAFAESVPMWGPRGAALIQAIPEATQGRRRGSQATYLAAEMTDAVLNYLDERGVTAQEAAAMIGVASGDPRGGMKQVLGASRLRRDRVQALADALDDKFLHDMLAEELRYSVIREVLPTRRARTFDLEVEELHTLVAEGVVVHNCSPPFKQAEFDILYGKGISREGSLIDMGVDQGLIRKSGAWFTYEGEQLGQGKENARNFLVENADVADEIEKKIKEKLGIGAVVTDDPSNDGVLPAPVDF

[2] = molecular target: T2, Replicative DNA helicase DnaB (Mycobacterium tuberculosis, UniProt P9WMR3); experiment: DnaB intein splicing inhibitors, dose response, biochemical, cell-free fluorescence (AID 449749); type: functional
T2 sequence (P9WMR3 whole entry): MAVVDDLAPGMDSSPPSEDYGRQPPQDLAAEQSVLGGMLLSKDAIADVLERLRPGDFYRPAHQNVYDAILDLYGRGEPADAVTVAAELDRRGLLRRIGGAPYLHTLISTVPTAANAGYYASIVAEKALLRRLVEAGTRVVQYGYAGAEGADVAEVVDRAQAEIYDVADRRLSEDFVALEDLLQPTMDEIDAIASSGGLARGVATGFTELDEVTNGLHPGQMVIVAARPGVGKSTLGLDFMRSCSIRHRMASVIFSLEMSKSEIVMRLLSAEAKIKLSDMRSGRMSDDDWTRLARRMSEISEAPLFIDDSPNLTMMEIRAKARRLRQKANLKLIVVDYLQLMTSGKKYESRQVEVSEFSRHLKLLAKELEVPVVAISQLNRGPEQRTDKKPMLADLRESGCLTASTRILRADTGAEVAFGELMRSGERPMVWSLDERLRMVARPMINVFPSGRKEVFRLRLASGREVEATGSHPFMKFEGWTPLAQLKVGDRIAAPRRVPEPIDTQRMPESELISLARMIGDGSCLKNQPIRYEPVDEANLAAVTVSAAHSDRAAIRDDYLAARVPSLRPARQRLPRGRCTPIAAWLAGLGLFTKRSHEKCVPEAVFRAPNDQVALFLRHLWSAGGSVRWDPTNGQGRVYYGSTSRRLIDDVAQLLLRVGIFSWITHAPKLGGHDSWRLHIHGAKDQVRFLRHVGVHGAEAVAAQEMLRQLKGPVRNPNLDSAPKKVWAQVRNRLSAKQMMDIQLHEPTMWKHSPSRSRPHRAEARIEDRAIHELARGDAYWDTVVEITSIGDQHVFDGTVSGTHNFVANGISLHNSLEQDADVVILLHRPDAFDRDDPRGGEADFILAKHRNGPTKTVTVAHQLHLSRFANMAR

[3] = Vero E6 cell cytotoxicity, dose response, cytotoxicity control for non-replicating M. tuberculosis project, secondary assay (AID 492998); type: functional, VeroE6; details: Vero C1008
[4] = THP-1 cell cytotoxicity, dose response, cytotoxicity control for non-replicating M. tuberculosis project (AID 489025); type: functional
[5] = Luminescence Cell-Based Dose Retest to Confirm Inhibitors of Cancer Stem Cells. [Related pubchem assays (depositor defined):AID2717, AID2721]; type: functional; details: Homo sapiens
cells = type: functional
[6] = molecular target: T3, Microphthalmia-associated transcription factor (Homo sapiens, UniProt O75030); experiment: reducers of TRPM1 reporter luminescence, concentration series – cell-based, SK-MEL-5, cherry-picked, set 3, MITF inhibitor project, dose response (AID 493073); type: functional;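 note: SK-MEL-5 melanoma cells with luciferase driven by the MITF target TRPM1 promoter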
T3 sequence (O75030 whole entry): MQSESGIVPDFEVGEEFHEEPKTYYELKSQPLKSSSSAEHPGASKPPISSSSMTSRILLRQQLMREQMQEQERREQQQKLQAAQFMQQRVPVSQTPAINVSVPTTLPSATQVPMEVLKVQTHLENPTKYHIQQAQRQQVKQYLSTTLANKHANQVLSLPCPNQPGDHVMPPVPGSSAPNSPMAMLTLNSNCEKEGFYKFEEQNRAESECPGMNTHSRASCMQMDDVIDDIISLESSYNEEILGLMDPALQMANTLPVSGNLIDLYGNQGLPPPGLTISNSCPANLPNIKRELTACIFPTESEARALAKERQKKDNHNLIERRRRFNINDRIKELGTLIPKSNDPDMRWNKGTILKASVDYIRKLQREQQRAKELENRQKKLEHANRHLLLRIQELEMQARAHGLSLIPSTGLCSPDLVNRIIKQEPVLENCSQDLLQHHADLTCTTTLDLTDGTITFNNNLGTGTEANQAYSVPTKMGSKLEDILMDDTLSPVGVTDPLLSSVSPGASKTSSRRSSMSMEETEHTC

[7] = microbe, parasite or virus in culture; type: functional; details: Mycobacterium tuberculosis
Coagulation factor XII = molecular target: T4, Coagulation factor XII (Homo sapiens, UniProt P00748); type: functional;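 note: activated factor XIIa alpha cleaving a fluorogenic AMC peptide substrate; inhibitor potency from loss of enzyme activity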
T4 sequence (P00748 whole entry): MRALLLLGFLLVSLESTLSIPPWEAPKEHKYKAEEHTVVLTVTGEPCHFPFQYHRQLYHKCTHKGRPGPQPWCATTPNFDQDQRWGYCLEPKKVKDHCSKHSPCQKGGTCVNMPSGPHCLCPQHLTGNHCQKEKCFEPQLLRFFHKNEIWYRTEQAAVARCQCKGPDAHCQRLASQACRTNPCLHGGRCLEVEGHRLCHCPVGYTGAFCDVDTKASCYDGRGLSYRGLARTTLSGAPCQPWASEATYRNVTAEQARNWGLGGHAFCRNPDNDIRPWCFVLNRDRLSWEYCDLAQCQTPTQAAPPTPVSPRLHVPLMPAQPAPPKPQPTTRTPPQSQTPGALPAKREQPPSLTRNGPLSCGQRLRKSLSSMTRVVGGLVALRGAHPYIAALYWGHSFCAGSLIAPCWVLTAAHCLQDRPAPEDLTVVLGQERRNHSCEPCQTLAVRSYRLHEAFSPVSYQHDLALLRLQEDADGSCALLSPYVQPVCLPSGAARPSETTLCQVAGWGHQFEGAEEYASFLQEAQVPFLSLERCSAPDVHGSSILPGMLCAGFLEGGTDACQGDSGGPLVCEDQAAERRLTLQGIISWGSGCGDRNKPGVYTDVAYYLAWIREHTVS

Cytochrome P450 1A2 = molecular target: T5, Cytochrome P450 1A2 (Homo sapiens, UniProt P05177);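 note: PubChem cytochrome P450 panel assay, CYP1A2 panel member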
T5 sequence (P05177 whole entry): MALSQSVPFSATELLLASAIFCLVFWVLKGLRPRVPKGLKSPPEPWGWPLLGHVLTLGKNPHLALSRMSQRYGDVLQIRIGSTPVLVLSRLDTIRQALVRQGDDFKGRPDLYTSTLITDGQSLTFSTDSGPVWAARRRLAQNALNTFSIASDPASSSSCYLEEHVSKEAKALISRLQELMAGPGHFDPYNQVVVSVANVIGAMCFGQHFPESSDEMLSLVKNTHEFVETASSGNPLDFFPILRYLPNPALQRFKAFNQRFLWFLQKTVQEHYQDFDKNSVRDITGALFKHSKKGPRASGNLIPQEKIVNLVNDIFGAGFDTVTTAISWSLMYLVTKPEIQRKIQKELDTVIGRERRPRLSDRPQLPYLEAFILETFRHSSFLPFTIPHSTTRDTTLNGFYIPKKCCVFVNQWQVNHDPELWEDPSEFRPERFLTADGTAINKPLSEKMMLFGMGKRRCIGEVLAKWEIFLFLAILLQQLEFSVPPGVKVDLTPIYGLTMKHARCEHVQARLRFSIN

Cytochrome P450 3A4 = Cytochrome P450 3A4 (Homo sapiens, UniProt P08684);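 note: CYP3A4 tested as one member of a cytochrome P450 panel screen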
[8] = Luminescence Cell-Based Dose Response HTS to Identify Activators of Luciferase Translation or Activity in H4 […] Cells. [Related pubchem assays: 1829 (Project Summary), 1814 (Primary HTS)]; type: functional
[9] = Luminescence Cell-Based Dose Confirmation HTS to Identify Activators of 5'UTR Stem-Loop Driven Alpha-Synuclein mRNA Translation in H4 Neuroglioblastoma Cells. [Related pubchem assays: 1829 (Project Summary), 1814 (Primary HTS)]; type: functional
H4 = experiment: Luminescence Cell-Based Dose Response HTS to Identify Activators of 5'UTR Stem-Loop Driven Prion Protein mRNA Translation in H4 Neuroglioblastoma Cells. [Related pubchem assays: 1829 (Project Summary), 1814 (Primary HTS)]; type: functional; details: Homo sapiens
[10] = Trypanosoma cruzi growth suppression in host cells – NIH3T3 host cells, beta-gal luminescence, confirmation (AID 2044); type: functional, cell-based;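 note: intracellular parasites grown in NIH/3T3 mouse fibroblasts as host cells; luminescent beta-galactosidase reporter signal from transgenic T. cruzi replicating inside host cells; inhibitors lower the luminescence signal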
[11] = NIH3T3 cell viability loss – ATP luminescence, mouse fibroblasts, counter-screen, dose response (AID 2010); type: functional, cell-based;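 note: cells exposed to compound for about 90 hours before reading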
[12] = molecular target: DNA dC->dU-editing enzyme APOBEC-3A (Homo sapiens, UniProt P31941); experiment: Dose Response confirmation of small molecule APOBEC3A DNA Deaminase Inhibitors via a fluorescence-based single-stranded DNA deaminase assay. [Related pubchem assays (depositor defined):AID493011, AID493024]; type: functional
[13] = molecular target: DNA dC->dU-editing enzyme APOBEC-3G (Homo sapiens, UniProt Q9HC16); type: functional;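 note: Dose-response counterscreen measuring inhibition of APOBEC3G DNA deaminase activity, run while confirming APOBEC3A inhibitors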
[14] = molecular target: T6, Ubiquitin-conjugating enzyme E2 N (Homo sapiens, UniProt P61088); type: functional;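 note: Dose-response confirmation in a TR-FRET assay detecting UBC13-driven polyubiquitin chain formation, inhibition measured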
T6 sequence (P61088 whole entry): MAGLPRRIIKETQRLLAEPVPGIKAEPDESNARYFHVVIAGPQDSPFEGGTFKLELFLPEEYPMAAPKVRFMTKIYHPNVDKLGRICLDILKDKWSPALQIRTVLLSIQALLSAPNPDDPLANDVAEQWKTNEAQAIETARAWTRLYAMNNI

[15] = viability of uninfected HEp-2 cells – cell-based, HTS, cytotoxicity control for RSV inhibitor project, dose response (AID 2410); type: functional; details: human respiratory syncytial virus
[16] = viability of HCT116 lacking mutant beta-catenin – cell-based, human colon tumor, dose response (AID 1045); type: functional;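 note: HCT116 colon tumor cells with beta catenin knocked out; cells exposed to compound for 60 hours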
[17] = viability of PTEN-deleted HCT116 cells – cell-based, HCT116 PTEN knockout, dose response (AID 1047); type: functional;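 note: HCT116 colon tumor cells with PTEN knocked out; cells exposed to compound for 60 hours before readout; potency for loss of cell viability measured by luminescence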

Sequence of Cytochrome P450 3A4 (P08684 whole entry): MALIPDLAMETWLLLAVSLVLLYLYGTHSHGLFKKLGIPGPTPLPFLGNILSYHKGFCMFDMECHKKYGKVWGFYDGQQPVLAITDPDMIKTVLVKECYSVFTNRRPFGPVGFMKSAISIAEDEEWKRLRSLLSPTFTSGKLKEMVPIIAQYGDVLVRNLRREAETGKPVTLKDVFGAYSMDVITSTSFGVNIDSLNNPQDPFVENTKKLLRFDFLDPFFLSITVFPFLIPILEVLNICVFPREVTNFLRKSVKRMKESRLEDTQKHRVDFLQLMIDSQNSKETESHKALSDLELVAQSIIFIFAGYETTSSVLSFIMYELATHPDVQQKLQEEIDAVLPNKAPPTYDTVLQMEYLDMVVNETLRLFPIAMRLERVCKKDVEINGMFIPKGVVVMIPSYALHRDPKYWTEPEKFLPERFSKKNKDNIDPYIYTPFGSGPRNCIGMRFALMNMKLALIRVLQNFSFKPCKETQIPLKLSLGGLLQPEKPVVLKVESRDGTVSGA
Sequence of Nonstructural protein 1 (Q194T2 whole entry): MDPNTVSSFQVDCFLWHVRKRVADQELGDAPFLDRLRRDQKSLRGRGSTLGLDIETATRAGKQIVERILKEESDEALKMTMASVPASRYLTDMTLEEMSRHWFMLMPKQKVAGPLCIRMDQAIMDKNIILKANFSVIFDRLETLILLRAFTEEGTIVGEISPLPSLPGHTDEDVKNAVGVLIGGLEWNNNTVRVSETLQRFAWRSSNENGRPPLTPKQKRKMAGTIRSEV
Sequence of DNA dC->dU-editing enzyme APOBEC-3A (P31941 whole entry): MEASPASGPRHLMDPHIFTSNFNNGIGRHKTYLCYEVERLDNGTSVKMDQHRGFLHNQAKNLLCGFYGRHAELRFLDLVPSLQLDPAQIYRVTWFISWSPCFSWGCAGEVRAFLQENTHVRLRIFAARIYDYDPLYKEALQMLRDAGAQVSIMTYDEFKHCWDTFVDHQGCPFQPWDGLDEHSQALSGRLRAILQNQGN
Sequence of DNA dC->dU-editing enzyme APOBEC-3G (Q9HC16 whole entry): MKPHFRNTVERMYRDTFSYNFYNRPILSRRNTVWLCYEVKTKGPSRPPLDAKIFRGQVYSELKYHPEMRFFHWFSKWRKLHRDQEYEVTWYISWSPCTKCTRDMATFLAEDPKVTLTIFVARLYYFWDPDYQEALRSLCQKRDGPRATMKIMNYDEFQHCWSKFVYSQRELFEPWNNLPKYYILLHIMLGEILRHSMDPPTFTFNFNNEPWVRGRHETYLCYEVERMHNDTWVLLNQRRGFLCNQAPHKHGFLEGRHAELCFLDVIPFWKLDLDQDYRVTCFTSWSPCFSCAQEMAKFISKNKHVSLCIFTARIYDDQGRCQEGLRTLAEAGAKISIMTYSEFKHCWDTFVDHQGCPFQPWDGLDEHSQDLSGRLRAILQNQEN
Sequence of Induced myeloid leukemia cell differentiation protein Mcl-1 (Q07820 whole entry): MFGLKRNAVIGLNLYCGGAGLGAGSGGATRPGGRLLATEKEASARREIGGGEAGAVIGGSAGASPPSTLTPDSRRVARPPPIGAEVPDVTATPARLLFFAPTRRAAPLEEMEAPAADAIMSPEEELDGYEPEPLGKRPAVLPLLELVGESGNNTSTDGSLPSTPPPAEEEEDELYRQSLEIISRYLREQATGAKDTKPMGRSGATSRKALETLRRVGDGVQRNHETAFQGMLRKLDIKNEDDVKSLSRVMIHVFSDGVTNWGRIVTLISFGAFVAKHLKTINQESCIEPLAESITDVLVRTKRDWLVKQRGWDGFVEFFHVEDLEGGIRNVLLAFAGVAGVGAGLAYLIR

c1cncc(C2Nc3cccc4cccc(c34)N2)c1
IC50 (Nonstructural protein 1): > 100 µM (active) | IC50 [1]: 9.59 µM (active)

Cc1ccc(C)c(NC(=O)CSc2n[nH]c(-c3ccccn3)n2)c1
IC50 (Nonstructural protein 1): 5.46 µM (active) | EC50 (Protein RecA): > 380 µM (inactive) | AC50 [2]: 163 µM (active)

COc1ccccc1OCCN1CSC(=S)N(C)C1
CC50 [3]: 5.83 µM (active) | CC50 [4]: 6.71 µM (active) | AC50 [5]: 2.4 µM (active) | IC50 (cells): 6.69 µM (active) | AC50 [6]: 12.2 µM (active) | CC50 [7]: 7.54 µM (active)

Nc1n[nH]c(SCn2nnc3ccccc3c2=O)n1
IC50 (Coagulation factor XII): > 50 µM (inactive)

NNC(=O)c1ccc(CSc2nc3ccccc3s2)cc1
IC50 (Coagulation factor XII): > 50 µM (inactive)

CCc1nnc(NC(=O)c2cc(-c3ccccc3)nn2-c2ccccc2)s1
AC50 (Cytochrome P450 1A2): 15.8 µM (inconclusive) | AC50 (Cytochrome P450 3A4): inconclusive | EC50 [8]: 7.74 µM (active) | EC50 [9]: > 120 µM (not active) | EC50 (H4): > 120 µM (not active)

Cc1ccc(C(=O)C(=O)c2ccc(C)c(N)c2)cc1N
IC50 (Coagulation factor XII): 15.7 µM (active)

CC(=O)N1CCC2(CC1)CN(C(c1ccccc1)c1ccccc1)C2
AC50 (Cytochrome P450 3A4): inconclusive

COc1ccc(CNC(=O)C2CSC(=O)C2)cc1 (stereo unspecified)
AC50 (Cytochrome P450 3A4): inconclusive | EC50 [10]: > 30 µM (not active) | EC50 [11]: 10.3 µM (active)

CC1CCCC(C2(O)C(=O)Nc3ccccc32)C1=O (stereo unspecified)
IC50 [12]: 5.46 µM (active) | IC50 [13]: 5.64 µM (active)

CCCN(C/C=C\I)[C@@H]1CCc2cccc(O)c2C1
AC50 (Cytochrome P450 3A4): inconclusive

CCN1C(NCCOC)=N[C@@H](c2cccc(C(F)(F)F)c2)C(C(=O)OC)=C1C
IC50 [12]: 2.09 µM (active) | IC50 [13]: 1.95 µM (active)

CCCCCCCSc1cc(OC)c(CCN(C)C)cc1OC
IC50 [14]: > 20 µM (inactive) | IC50 (Nonstructural protein 1): 44.4 µM (active) | CC50 [15]: 21.3 µM (active) | EC50 [16]: 7.83 µM (active) | EC50 [17]: 9.16 µM (active)

COc1ccc(/C=C2/SC(=S)N(n3c(C)ccc3C)C2=O)cc1
IC50 (Coagulation factor XII): > 50 µM (inactive)

O=C(NC(=S)N1CCN(Cc2ccc3c(c2)OCO3)CC1)c1ccc(Cl)cc1
CC50 [3]: 19.2 µM (active) | IC50 (cells): 18.1 µM (active)
